Structures can show the parent of a compound that is named as a salt.
Assays:
mice [1] = experiment: phenyl-benzoquinone (PBQ) writhing test; assay type: in vivo, mouse
Protocol: (§1) Two compounds, N-(4-aminophenethyl)-1,2,3,4-tetrahydro-6,7-dimethoxy-1-methylisoquinoline(Compound No. 1) and its N-methyl derivative (Compound No. 2) were tested for analgesic activity in rats and mice by the oral and subcutaneous routes. In addition, gross behavioral and toxicological effects (as well as general pharmacological profiling) were evaluated in mice by the intraperitoneal route of administration.
In mice, two test procedures designed to detect analgesic activity were used: the phenyl-benzoquinone (PBQ) writhing test and the hot plate test. […] […] In the hot plate test, subjects were placed on the surface of a hot copper plate maintained at 54.5°±1.0° C. For the oral studies drugs were injected 30 minutes before testing on the hot plate. Drugged animals whose reaction time (consisting of paw licking or jumping behavior) was equal to or greater than 2 seconds over the average of an untreated control group of mice were considered to be protected from the pain.

[2] = literature, Medicinal Chemistry, Vol. 5; cited from earlier work
rats [3] = experiment: tail flick test in rats; assay type: in vivo; conditions: po, 1 h; rat, p.o., 60 minute post dose interval; read-out: ED50 (95% C.L.), Rat Tail Flick
Protocol: as §1
In rats, two procedures designed to detect anlgesic acitivity were used: the hot plate test and the tail flick test. In the hot plate test, rats were placed on the surface of a copper plate maintained at 54.5°±1.0° C. and their response latency (again consisting of paw licking or jumping behavior) determined at 60 minutes and again at 30 minutes before drug injection. These response times were again determined 30 and 60 minutes after drug injection and animals whose response latencies were equal to or greater than three seconds over the second pre-treatment trial (i.e., the one done 30 minutes before dosing) were considered protected from the pain. In the tail flick procedure, a high intensity light beam was focused on the blackened portion of the rat's tail and the reaction time, i.e., latency to move its tail, was measured before and 15, 30, 45, 60, 90 and 120 minutes after drug administration. […]

rats [4] = experiment: hot plate test in rats; assay type: in vivo; conditions: 1 h, rat, 60 minute post dose interval, 54.5°±1.0° C., read-out: ED50 (95% C.L.), Rat Hot Plate
Protocol: as §1
In rats, two procedures designed to detect anlgesic acitivity were used: the hot plate test and the tail flick test. In the hot plate test, rats were placed on the surface of a copper plate maintained at 54.5°±1.0° C. and their response latency (again consisting of paw licking or jumping behavior) determined at 60 minutes and again at 30 minutes before drug injection. These response times were again determined 30 and 60 minutes after drug injection and animals whose response latencies were equal to or greater than three seconds over the second pre-treatment trial (i.e., the one done 30 minutes before dosing) were considered protected from the pain. In the tail flick procedure, a high intensity light beam was focused on the blackened portion of the rat's tail and the reaction time, i.e., latency to move its tail, was measured before and 15, 30, 45, 60, 90 and 120 minutes after drug administration. A subject was considered protected from the pain stimulus when Po ≥Pr +Pr 2 where Po is the individual post treatment value and Pr, the pretreatment value. The ED50's reported below for both of these procedures were calculated from values obtained at the 60 minute post dose interval.

mice [5] = experiment: hot plate test in mice; assay type: in vivo; conditions: po, 0.5 h; mouse, p.o., 30 minutes before testing, 54.5°±1.0° C.; read-out: ED50 (95% C.L.), Mouse Hot Plate
Protocol: as §1
In mice, two test procedures designed to detect analgesic activity were used: the phenyl-benzoquinone (PBQ) writhing test and the hot plate test. In the PBQ procedure, the drugs were injected 15 minutes before an intraperitoneal injection of PBQ was made for the subcutaneous studies and 30 minutes before the PBQ for the oral studies. […] In the hot plate test, subjects were placed on the surface of a hot copper plate maintained at 54.5°±1.0° C. For the oral studies drugs were injected 30 minutes before testing on the hot plate. Drugged animals whose reaction time (consisting of paw licking or jumping behavior) was equal to or greater than 2 seconds over the average of an untreated control group of mice were considered to be protected from the pain.

[6] = sc, 0.25 h, mouse PBQ assay, s.c., 15 min post dose, table 6, read-out: Analgesic activity, s.c. ED50 at 15 min post dose
[7] = sc, 0.75 h, mouse PBQ assay, s.c., 45 min post dose, table 6, read-out: Analgesic activity, s.c. ED50 at 45 min post dose
[8] = po, 0.5 h, mouse, p.o., drug 30 minutes before PBQ, read-out: ED50 (95% C.L.), Mouse PBQ
[9] = sc, 0.25 h, mouse, s.c., drug 15 minutes before PBQ, table 5, read-out: ED50 (95% C.L.), Mouse PBQ

CNc1ccc(CCN2CCc3cc(OC)ccc3C2C)cc1.Cl (stereo not drawn) [Example 11, N-(4-Methylaminophenethyl)-1,2,3,4-tetrahydro-6-methoxy-1-methylisoquinoline hydrochloride]
ED50 (mice [1]; [6]): 6 mg/kg | ED50 (mice [1]; [7]): 13.8 mg/kg

COc1cc2c(cc1OC)C(C)N(CCc1ccc(O)cc1)CC2.Cl (stereo not drawn) [Example 12, N-(4-Hydroxyphenethyl)-1,2,3,4-tetrahydro-6,7-dimethoxy-1-methylisoquinoline hydrochloride]
ED50 (mice [1]; [6]): 5.8 mg/kg | ED50 (mice [1]; [7]): 10 to 31.6 mg/kg

COc1cc2c(cc1OC)C(C)N(CCc1ccc(Cl)cc1)CC2 (stereo not drawn)
analgesic properties / activity reported by Brossi et al [2]: reported not to exhibit analgesic properties

COc1cc2c(cc1OC)C(C)N(CCc1ccccc1N)CC2 (stereo not drawn) [Example 4, N-(2-Aminophenethyl-1,2,3,4-tetrahydro-6,7-dimethoxy-1-methylisoquinolinedihydrochloride]
ED50 (mice [1]; [6]): 10.7 mg/kg | ED50 (mice [1]; [7]): 34 mg/kg

COc1cc2c(cc1OC)C(C)N(CCc1ccc(N(C)C)cc1)CC2.Cl.Cl (stereo not drawn) [Example 5, N-(4-Dimethylaminophenethyl)-1,2,3,4-tetrahydro-6,7-dimethoxy-1-methylisoquinoline dihydrochloride]
ED50 (mice [1]; [6]): 27.3 mg/kg | ED50 (mice [1]; [7]): 26.7 mg/kg

COc1cc2c(cc1OC)C(C)N(CCc1cccc(N)c1)CC2.Cl.Cl (stereo not drawn) [Example 3, N-(3-Aminophenethyl)-1,2,3,4-tetrahydro-6,7-dimethoxy-1-methylisoquinoline dihydrochloride]
ED50 (mice [1]; [6]): 11.9 mg/kg | ED50 (mice [1]; [7]): 20.2 mg/kg

COc1cc2c(cc1OC)CN(CCc1ccc([N+](=O)[O-])cc1)CC2.Cl [Example 7, N-(4-Nitrophenethyl)-1,2,3,4-tetrahydro-6,7-dimethoxyisoquinoline hydrochloride]
ED50 (mice [1]; [6]): 9 mg/kg | ED50 (mice [1]; [7]): 34 mg/kg

COc1cc2c(cc1OC)C(C)N(CCc1ccc(N)cc1)CC2 (stereo not drawn) [Example 1, N-(4-aminophenethyl)-1,2,3,4-tetrahydro-6,7-dimethoxy-1-methylisoquinoline]
ED50 (rats [3]): ~31.6 mg/kg | ED50 (mice [1]; [8]): 48.5 mg/kg | ED50 (mice [1]; [6]): 7 mg/kg | ED50 (mice [1]; [9]): 3.7 mg/kg | ED50 (mice [1]; [7]): 24.2 mg/kg | ED50 (rats [4]; po, p.o.): 30 to 60 mg/kg | ED50 (rats [4]; sc, s.c.): 35.7 mg/kg | ED50 (mice [5]): 25.7 mg/kg

COc1cc2c(cc1OC)CN(CCc1ccc(O)cc1)CC2.Cl [Example 13, N-(4-Hydroxyphenethyl)-1,2,3,4-tetrahydro-6,7-dimethoxyisoquinoline hydrochloride]
ED50 (mice [1]; [6]): 2.8 mg/kg | ED50 (mice [1]; [7]): 22.4 mg/kg

COc1ccc2c(c1)CCN(CCc1ccc([N+](=O)[O-])cc1)C2C.Cl.Cl (stereo not drawn) [Example 9, N-(4-Nitrophenethyl)-1,2,3,4-tetrahydro-6-methoxy-1-methylisoquinoline dihydrochloride]
ED50 (mice [1]; [6]): 10.4 mg/kg | ED50 (mice [1]; [7]): 16.4 mg/kg

COc1ccc2c(c1)CCN(CCc1ccc(NC=O)cc1)C2C (stereo not drawn) [Example 11 (N--Formyl), N-(4-Formamidophenethyl)-1,2,3,4-tetrahydro-6-methoxy-1-methylisoquinoline]
ED50 (mice [1]; [6]): 3.5 mg/kg | ED50 (mice [1]; [7]): 15.3 mg/kg

COc1cc2c(cc1OC)CN(CCc1ccc(N)cc1)CC2.Cl.Cl [Example 8, N-(4-Aminophenethyl)-1,2,3,4-tetrahydro-6,7-dimethoxyisoquinoline dihydrochloride]
ED50 (mice [1]; [6]): 2.9 mg/kg | ED50 (mice [1]; [7]): 16.2 mg/kg

COc1cc2c(cc1O)CCN(CCc1ccc(N)cc1)C2C.Cl.Cl (stereo not drawn) [Example 14, N-(4-Aminophenethyl)-1,2,3,4-tetrahydro-6-hydroxy-7-methoxy-1-methylisoquinoline dihydrochloride]
ED50 (mice [1]; [6]): 7.3 mg/kg | ED50 (mice [1]; [7]): 25.8 mg/kg

CNc1ccc(CCN2CCc3cc(OC)c(OC)cc3C2C)cc1.Cl (stereo not drawn) [Example 2, N-(4-Methylaminophenethyl)-1,2,3,4-tetrahydro-6,7-dimethoxy-1-methylisoquinoline hydrochloride]
ED50 (rats [3]): 30 to 60 mg/kg | ED50 (mice [1]; [8]): 42.8 mg/kg | ED50 (mice [1]; [9]): 5.2 mg/kg | ED50 (rats [4]; po, p.o.): ~17.8 mg/kg | ED50 (mice [5]): 31.7 mg/kg

CC1c2cc(O)c(O)cc2CCN1CCc1ccc(N)cc1 (stereo not drawn) [Example 15, N-(4-Aminophenethyl)-1,2,3,4-tetrahydro-6,7-dihydroxy-1-methylisoquinolinedihydrobromide]
ED50 (mice [1]; [6]): 25.4 mg/kg | ED50 (mice [1]; [7]): ~100 mg/kg

COc1ccc2c(c1)CCN(CCc1ccc(N)cc1)C2C.Cl.Cl (stereo not drawn) [Example 10, N-(4-Aminophenethyl)-1,2,3,4-tetrahydro-6-methoxy-1-methyl-isoquinoline dihydrochloride]
ED50 (mice [1]; [6]): 6.5 mg/kg | ED50 (mice [1]; [7]): 11.8 mg/kg

COc1cc2c(cc1OC)C(C)N(CCc1ccc(NC(C)=O)cc1)CC2.Cl (stereo not drawn) [Example 6, N-(4-Acetamidophenethyl)-1,2,3,4-tetrahydro-6,7-dimethoxy-1-methylisoquinoline hydrochloride]
ED50 (mice [1]; [6]): 21 mg/kg | ED50 (mice [1]; [7]): 31.6 to 56.2 mg/kg
